How the values were obtained:
[1] = biological target: Casein kinase I isoform gamma-3 (Homo sapiens) (UniProt Q9Y6M4); details: Compound concentration 1000.0 nM
[2] = biological target: Calcium/calmodulin-dependent protein kinase type II subunit beta (Homo sapiens) (UniProt Q13554); details: Compound concentration 1000.0 nM
[3] = biological target: Serine/threonine-protein kinase MRCK alpha (Homo sapiens) (UniProt Q5VT25); details: Compound concentration 1000.0 nM
[4] = biological target: Serine/threonine-protein kinase Chk2 (Homo sapiens) (UniProt O96017); details: Compound concentration 1000.0 nM
[5] = biological target: Serine/threonine-protein kinase MRCK gamma (Homo sapiens) (UniProt Q6DT37); details: Compound concentration 1000.0 nM
[6] = biological target: Serine/threonine-protein kinase Nek11 (Homo sapiens) (UniProt Q8NG66); details: Compound concentration 1000.0 nM
[7] = biological target: Nitric oxide synthase 3 (Rattus norvegicus) (UniProt Q62600); assay: CNOS Eurofins-Panlabs selectivity data (BI); details: Compound concentration 10.0 uM
[8] = test system: Tyrosine-protein kinase ABL1 (Homo sapiens), P00519 [Q252H]; details: Compound concentration 1000.0 nM
[9] = biological target: Calcium/calmodulin-dependent protein kinase kinase 2 (Homo sapiens) (UniProt Q96RR4); details: Compound concentration 1000.0 nM
[10] = biological target: Serine/threonine-protein kinase MARK1 (Homo sapiens) (UniProt Q9P0L2); details: Compound concentration 1000.0 nM
[11] = biological target: Ephrin type-A receptor 8 (Homo sapiens) (UniProt P29322); details: Compound concentration 1000.0 nM
[12] = biological target: Mitogen-activated protein kinase 4 (Homo sapiens) (UniProt P31152); details: Compound concentration 1000.0 nM
[13] = test system: Tyrosine-protein kinase ABL1 (Homo sapiens), P00519 [F317I]; details: Compound concentration 1000.0 nM
[14] = biological target: Non-receptor tyrosine-protein kinase TYK2 (Homo sapiens) (UniProt P29597); details: Compound concentration 1000.0 nM
[15] = biological target: Ephrin type-A receptor 7 (Homo sapiens) (UniProt Q15375); details: Compound concentration 1000.0 nM
[16] = test system: Fibroblast growth factor receptor 3 (Homo sapiens), P22607 [G697C]; details: Compound concentration 1000.0 nM
[17] = biological target: Ribosomal protein S6 kinase alpha-4 (Homo sapiens) (UniProt O75676); details: Compound concentration 1000.0 nM
[18] = biological target: Phosphatidylinositol 3-kinase C2 domain-containing subunit gamma (Homo sapiens) (UniProt O75747); details: Compound concentration 1000.0 nM
[19] = biological target: Serine/threonine-protein kinase MAK (Homo sapiens) (UniProt P20794); details: Compound concentration 1000.0 nM
[20] = species on record: Rattus norvegicus; details: Compound concentration 10.0 uM
[21] = biological target: Serine/threonine-protein kinase Sgk2 (Homo sapiens) (UniProt Q9HBY8); details: Compound concentration 1000.0 nM
[22] = biological target: Myosin light chain kinase, smooth muscle (Homo sapiens) (UniProt Q15746); details: Compound concentration 1000.0 nM
[23] = test system: Hepatocyte growth factor receptor (Homo sapiens), P08581 [Y1235D]; details: Compound concentration 1000.0 nM
[24] = biological target: Testis-specific serine/threonine-protein kinase 3 (Homo sapiens) (UniProt Q96PN8); details: Compound concentration 1000.0 nM
[25] = biological target: Cyclin-dependent kinase 5 (Homo sapiens) (UniProt Q00535); details: Compound concentration 1000.0 nM
[26] = biological target: Tyrosine-protein kinase ABL2 (Homo sapiens) (UniProt P42684); details: Compound concentration 1000.0 nM
[27] = test system: Mast/stem cell growth factor receptor Kit (Homo sapiens), P10721 [L576P]; details: Compound concentration 1000.0 nM
[28] = biological target: Cyclin-dependent kinase 17 (Homo sapiens) (UniProt Q00537); details: Compound concentration 1000.0 nM
[29] = biological target: Sodium/potassium-transporting ATPase subunit alpha-1 (Sus scrofa) (UniProt P05024); assay: ATP NA+/K+PI Eurofins-Panlabs selectivity data (BI); details: Compound concentration 10.0 uM
[30] = test system: Tyrosine-protein kinase ABL1 (Homo sapiens), P00519 [F317I]; details: Compound concentration 1000.0 nM; remark: listed apart in the source
[31] = biological target: Alpha-2B adrenergic receptor (Homo sapiens) (UniProt P18089); details: Compound concentration 10.0 uM
[32] = biological target: D(1A) dopamine receptor (Homo sapiens) (UniProt P21728); details: Compound concentration 10.0 uM
[33] = biological target: Thromboxane A2 receptor (Homo sapiens) (UniProt P21731); assay: PROST_A2TP Eurofins-Panlabs selectivity data (BI); details: Compound concentration 10.0 uM
[34] = biological target: Vascular endothelial growth factor receptor 3 (Homo sapiens) (UniProt P35916); details: Compound concentration 1000.0 nM
[35] = biological target: Cyclin-dependent kinase 3 (Homo sapiens) (UniProt Q00526); details: Compound concentration 1000.0 nM
[36] = biological target: MAP kinase-activated protein kinase 5 (Homo sapiens) (UniProt Q8IW41); details: Compound concentration 1000.0 nM
[37] = biological target: SNF-related serine/threonine-protein kinase (Homo sapiens) (UniProt Q9NRH2); details: Compound concentration 1000.0 nM
[38] = biological target: Serine/threonine-protein kinase OSR1 (Homo sapiens) (UniProt O95747); details: Compound concentration 1000.0 nM
[39] = biological target: Mitogen-activated protein kinase 3 (Homo sapiens) (UniProt P27361); details: Compound concentration 1000.0 nM
[40] = biological target: Fibroblast growth factor receptor 2 (Homo sapiens) (UniProt P21802); details: Compound concentration 1000.0 nM
[41] = biological target: Non-receptor tyrosine-protein kinase TYK2 (Homo sapiens) (UniProt P29597); details: Compound concentration 1000.0 nM; remark: listed apart in the source
[42] = biological target: Tyrosine-protein kinase CSK (Homo sapiens) (UniProt P41240); details: Compound concentration 1000.0 nM
[43] = biological target: Voltage-dependent L-type calcium channel subunit alpha-1C (diltiazem site) (Rattus norvegicus, UniProt P22002); assay: CA+/DILSI/RA Eurofins-Panlabs selectivity data (BI); details: compound concentration 10 uM, read-out: % Ctrl
[44] = biological target: Sodium-dependent dopamine transporter (Homo sapiens, UniProt Q01959); assay: GPCRScan assay: inhibition of DAT; parameters: radioligand conc. used [nm] 3.6 – 16.0, parental cells stable HEK
Chain of Sodium-dependent dopamine transporter (Q01959 whole entry): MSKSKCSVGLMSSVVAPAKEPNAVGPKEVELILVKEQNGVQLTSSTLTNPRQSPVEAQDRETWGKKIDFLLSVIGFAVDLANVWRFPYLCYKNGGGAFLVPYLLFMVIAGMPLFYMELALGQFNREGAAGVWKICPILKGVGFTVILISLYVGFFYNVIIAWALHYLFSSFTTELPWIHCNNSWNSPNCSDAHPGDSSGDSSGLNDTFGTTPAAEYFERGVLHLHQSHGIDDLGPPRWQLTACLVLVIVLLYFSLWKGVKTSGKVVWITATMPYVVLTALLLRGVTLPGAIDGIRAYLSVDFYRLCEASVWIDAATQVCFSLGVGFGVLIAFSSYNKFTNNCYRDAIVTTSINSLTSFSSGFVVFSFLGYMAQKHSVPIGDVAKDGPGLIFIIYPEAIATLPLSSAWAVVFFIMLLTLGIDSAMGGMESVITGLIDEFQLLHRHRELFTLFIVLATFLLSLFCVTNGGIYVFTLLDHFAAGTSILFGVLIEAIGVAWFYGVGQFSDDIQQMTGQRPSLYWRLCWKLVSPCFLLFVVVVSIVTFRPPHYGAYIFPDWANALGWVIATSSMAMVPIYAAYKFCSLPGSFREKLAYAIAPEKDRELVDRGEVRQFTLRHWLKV

Chain of Non-receptor tyrosine-protein kinase TYK2 (Homo sapiens) (P29597 whole entry): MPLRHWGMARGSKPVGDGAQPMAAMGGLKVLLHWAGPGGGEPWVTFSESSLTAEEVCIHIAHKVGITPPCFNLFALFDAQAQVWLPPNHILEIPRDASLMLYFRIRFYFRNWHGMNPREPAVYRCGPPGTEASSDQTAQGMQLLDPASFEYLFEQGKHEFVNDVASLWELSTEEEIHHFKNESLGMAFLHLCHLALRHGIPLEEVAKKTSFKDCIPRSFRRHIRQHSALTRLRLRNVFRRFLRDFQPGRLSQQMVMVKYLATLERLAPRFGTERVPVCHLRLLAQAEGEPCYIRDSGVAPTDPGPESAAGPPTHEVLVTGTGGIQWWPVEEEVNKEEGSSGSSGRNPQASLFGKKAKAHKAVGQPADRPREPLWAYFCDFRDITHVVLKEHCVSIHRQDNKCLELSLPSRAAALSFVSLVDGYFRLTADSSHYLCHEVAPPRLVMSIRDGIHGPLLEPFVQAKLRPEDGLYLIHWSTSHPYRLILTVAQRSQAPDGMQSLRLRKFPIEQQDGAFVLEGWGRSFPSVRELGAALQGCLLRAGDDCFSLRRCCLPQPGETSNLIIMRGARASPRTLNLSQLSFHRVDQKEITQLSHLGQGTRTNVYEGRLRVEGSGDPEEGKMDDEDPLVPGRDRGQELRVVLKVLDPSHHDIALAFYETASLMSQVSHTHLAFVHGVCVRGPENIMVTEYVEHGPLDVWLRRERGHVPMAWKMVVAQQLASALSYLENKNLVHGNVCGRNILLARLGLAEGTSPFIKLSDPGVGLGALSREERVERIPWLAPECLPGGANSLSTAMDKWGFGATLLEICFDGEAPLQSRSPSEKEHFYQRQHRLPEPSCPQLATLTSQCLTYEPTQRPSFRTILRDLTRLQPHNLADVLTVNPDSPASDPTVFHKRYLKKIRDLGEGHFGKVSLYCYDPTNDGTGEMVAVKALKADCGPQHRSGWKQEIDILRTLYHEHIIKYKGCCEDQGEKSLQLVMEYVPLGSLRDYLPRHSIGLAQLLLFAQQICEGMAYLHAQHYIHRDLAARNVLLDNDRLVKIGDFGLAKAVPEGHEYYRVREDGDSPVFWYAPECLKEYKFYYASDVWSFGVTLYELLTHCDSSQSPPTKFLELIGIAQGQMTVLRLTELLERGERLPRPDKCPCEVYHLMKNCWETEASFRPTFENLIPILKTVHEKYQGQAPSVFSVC
Chain of Testis-specific serine/threonine-protein kinase 3 (Homo sapiens) (Q96PN8 whole entry): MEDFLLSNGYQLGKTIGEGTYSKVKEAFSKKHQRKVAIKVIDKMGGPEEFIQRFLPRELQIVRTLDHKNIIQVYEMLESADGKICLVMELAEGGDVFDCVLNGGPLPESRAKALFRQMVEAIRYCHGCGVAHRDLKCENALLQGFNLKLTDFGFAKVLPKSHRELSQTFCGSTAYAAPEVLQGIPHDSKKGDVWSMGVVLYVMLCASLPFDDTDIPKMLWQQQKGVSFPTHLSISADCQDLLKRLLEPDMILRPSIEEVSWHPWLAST
Chain of Serine/threonine-protein kinase MARK1 (Homo sapiens) (Q9P0L2 whole entry, looked up): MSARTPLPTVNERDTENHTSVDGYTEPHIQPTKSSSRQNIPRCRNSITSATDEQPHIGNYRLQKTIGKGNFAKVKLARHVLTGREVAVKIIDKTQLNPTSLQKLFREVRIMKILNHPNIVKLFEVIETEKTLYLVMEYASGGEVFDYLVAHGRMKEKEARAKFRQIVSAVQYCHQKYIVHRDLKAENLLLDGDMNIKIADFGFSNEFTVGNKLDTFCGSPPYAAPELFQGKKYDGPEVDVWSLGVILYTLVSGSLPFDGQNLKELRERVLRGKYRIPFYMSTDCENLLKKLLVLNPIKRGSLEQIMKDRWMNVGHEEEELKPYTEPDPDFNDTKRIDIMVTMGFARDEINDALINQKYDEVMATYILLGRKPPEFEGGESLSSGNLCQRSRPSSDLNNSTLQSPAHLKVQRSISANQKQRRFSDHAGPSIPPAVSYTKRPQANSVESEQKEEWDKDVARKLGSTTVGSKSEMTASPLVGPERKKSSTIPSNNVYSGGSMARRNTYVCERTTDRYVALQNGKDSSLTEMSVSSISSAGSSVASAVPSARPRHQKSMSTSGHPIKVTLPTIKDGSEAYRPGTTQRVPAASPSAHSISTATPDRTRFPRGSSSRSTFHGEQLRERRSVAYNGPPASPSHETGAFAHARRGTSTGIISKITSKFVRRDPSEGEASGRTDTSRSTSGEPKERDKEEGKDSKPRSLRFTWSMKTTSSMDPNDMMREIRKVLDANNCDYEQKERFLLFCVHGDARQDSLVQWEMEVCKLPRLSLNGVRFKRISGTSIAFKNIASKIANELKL
Chain of Serine/threonine-protein kinase Sgk2 (Homo sapiens) (Q9HBY8 whole entry): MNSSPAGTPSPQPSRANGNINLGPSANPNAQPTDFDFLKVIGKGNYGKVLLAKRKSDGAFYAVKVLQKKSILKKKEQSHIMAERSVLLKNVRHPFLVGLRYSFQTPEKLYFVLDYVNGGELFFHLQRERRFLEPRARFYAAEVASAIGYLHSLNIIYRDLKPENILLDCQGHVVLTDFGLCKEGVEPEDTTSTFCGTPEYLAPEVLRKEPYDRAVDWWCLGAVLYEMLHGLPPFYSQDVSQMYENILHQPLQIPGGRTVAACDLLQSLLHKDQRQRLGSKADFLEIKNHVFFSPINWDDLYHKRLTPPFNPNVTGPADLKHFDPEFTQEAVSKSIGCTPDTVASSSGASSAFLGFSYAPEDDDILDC
Chain of Fibroblast growth factor receptor 3 (Homo sapiens), P22607 [G697C] (P22607 whole entry G697C): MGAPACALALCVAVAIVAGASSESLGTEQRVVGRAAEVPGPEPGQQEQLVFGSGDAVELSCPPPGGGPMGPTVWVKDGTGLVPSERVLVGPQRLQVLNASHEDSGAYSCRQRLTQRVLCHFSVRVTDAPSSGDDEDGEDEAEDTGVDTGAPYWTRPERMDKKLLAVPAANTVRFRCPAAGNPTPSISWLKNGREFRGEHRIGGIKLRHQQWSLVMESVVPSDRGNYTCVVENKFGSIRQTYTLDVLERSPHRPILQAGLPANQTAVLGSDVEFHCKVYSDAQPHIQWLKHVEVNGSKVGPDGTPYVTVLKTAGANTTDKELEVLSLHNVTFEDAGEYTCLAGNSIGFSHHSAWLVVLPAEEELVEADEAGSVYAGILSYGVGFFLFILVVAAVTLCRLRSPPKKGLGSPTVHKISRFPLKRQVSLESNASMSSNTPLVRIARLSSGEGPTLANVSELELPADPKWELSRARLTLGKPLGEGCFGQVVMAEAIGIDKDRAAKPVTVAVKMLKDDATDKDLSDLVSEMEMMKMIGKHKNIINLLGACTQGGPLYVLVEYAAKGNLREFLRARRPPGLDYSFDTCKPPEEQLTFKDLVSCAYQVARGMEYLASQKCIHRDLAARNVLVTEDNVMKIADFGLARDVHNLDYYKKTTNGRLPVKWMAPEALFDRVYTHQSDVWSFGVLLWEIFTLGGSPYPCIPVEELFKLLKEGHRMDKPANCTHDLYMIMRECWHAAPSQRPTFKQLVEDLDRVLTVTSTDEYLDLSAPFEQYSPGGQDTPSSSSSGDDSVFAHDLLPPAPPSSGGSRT
Chain of Tyrosine-protein kinase CSK (Homo sapiens) (P41240 2-450 limits assumed): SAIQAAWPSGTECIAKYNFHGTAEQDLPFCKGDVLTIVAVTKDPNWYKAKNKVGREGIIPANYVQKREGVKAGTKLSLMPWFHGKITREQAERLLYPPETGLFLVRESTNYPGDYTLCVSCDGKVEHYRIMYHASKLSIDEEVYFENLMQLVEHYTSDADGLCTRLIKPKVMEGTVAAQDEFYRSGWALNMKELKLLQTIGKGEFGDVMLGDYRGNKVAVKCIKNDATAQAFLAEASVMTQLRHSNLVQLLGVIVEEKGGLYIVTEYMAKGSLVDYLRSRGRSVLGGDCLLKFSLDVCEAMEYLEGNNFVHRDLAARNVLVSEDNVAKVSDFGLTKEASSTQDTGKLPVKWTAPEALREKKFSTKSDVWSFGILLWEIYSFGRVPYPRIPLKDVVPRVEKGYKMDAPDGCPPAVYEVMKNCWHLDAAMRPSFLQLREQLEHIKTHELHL
Chain of Serine/threonine-protein kinase Chk2 (Homo sapiens) (O96017 whole entry): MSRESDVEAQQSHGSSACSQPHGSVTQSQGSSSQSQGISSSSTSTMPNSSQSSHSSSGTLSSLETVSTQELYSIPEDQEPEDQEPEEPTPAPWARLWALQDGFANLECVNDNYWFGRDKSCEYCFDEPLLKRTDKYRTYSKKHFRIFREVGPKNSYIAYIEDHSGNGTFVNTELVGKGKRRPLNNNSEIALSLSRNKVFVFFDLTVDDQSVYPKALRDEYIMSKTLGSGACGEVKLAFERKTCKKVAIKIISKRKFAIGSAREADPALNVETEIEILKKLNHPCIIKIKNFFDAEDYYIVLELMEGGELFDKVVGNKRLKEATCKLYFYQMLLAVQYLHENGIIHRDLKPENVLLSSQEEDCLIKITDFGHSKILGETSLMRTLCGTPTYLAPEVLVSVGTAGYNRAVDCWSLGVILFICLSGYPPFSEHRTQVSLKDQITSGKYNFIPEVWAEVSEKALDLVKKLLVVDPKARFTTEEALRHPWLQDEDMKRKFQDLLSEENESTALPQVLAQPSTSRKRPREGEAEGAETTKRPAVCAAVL

`CCOCCn1cc(C(=O)Nc2ccc(-n3nc(-c4cccnc4)cc3C(F)(F)F)cn2)ccc1=O` [BI 1935] was tested, and the residual activity [1] was 100%, the residual activity [2] was 90% and the residual activity [3] was 100%. For the same compound, the residual activity [4] was 0%, the residual activity [5] was 91% and the residual activity [6] was 96%. For the same compound, the residual activity [7] was 112%, the residual activity [8] was 83% and the residual activity [9] was 100%. It also gave a residual activity [10] of 100%, a residual activity [11] of 84% and a residual activity [12] of 100%. It also gave a residual activity [13] of 74%, a residual activity [14] of 100% and a residual activity [15] of 98%. It also gave a residual activity [16] of 100%, a residual activity [17] of 100% and a residual activity [18] of 85%. It also gave a residual activity [19] of 89%, an inhibition [20] of -5.52% and a residual activity [21] of 100%. For the same compound, the residual activity [22] was 73%, the residual activity [23] was 100% and the residual activity [24] was 100%. The residual activity [25] was 100%, the residual activity [26] was 87% and the residual activity [27] was 94%. The residual activity [28] was 96%, the residual activity [29] was 94% and the residual activity [30] was 91%. It also gave an inhibition [31] of 4.9%, an inhibition [32] of -7.31% and a residual activity [33] of 98%. For the same compound, the residual activity [34] was 92%, the residual activity [35] was 100% and the residual activity [36] was 87%. The residual activity [37] was 88%, the residual activity [38] was 92% and the residual activity [39] was 100%. The residual activity [40] was 49%, the residual activity [41] was 77% and the residual activity [42] was 100%. The activity at 10 µM [43] was 95% (not active), the Ki ([44]; read-out: Ki) was 4.48 µM and the Ki ([44]; read-out: pKi (converted)) was 5.01 µM.

— ChEMBL document CHEMBL4507283, “Data for DCP probe BI-1935” (2021)
